# Reference: PubChem BioAssay (NCI)
# Several values for one entry are separate records, joined by “and”; a condition that tells them apart may be missing. Identical values can stand only once.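 Interpolation was linear, between the two tested concentrations surrounding the appropriate level; five concentrations were tested over 48 hours in 96-well plates. GI50: concentration for 50% inhibition of growth. TGI: total growth inhibition.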
# Assays:
# Assay in all cases: inhibition of tumour cell growth, NCI panel, 48 h
# 786-0 renal = system: 786-0 renal
# A498 renal = system: A498 renal
# COLO 205 colon = system: COLO 205 colon
# IGROV1 ovarian = system: IGROV1 ovarian
# K-562 leukemia = system: K-562 leukemia
# OVCAR-8 ovarian = system: OVCAR-8 ovarian
# SK-MEL-2 melanoma = system: SK-MEL-2 melanoma
# SK-MEL-5 melanoma = system: SK-MEL-5 melanoma
# HCC-2998 colon = system: HCC-2998 colon
# U251 CNS = system: U251 CNS
Structure (SMILES),TGI (786-0 renal),TGI (A498 renal),TGI (COLO 205 colon),TGI (IGROV1 ovarian),TGI (K-562 leukemia),TGI (OVCAR-8 ovarian),TGI (SK-MEL-2 melanoma),TGI (SK-MEL-5 melanoma),GI50 (786-0 renal),GI50 (A498 renal),GI50 (COLO 205 colon),GI50 (HCC-2998 colon),TGI (HCC-2998 colon),GI50 (IGROV1 ovarian),GI50 (K-562 leukemia),GI50 (OVCAR-8 ovarian),GI50 (SK-MEL-5 melanoma),GI50 (U251 CNS),TGI (U251 CNS),GI50 (SK-MEL-2 melanoma)
CC(=O)OC1C[C@H]2C(OC(=O)c3ccccc3)C3C4(OC(C)=O)COC4C[C@H](OC(C)=O)[C@@]3(C)C(OC(C)=O)[C@H](OC(C)=O)C(=C1C)C2(C)C (stereo not given in full),> 100 µM,> 100 µM,> 100 µM,> 100 µM,> 100 µM,> 100 µM,97.8 µM,> 100 µM,,,,,,,,,,,,
COc1ccccc1-n1cnc(N)c1C(=O)c1cc(OC)c(OC)c(OC)c1,> 100 µM,9.69 µM,40.3 µM,> 100 µM,> 100 µM,> 100 µM,,> 100 µM,5.41 µM,2.79 µM,4.5 µM,6.8 µM,> 100 µM,3.88 µM,2.12 µM,5.85 µM,3.13 µM,3.74 µM,> 100 µM,
O=S(=O)(C1=CC(S(=O)(=O)c2ccccc2)COC1)c1ccccc1 (stereo not given),> 100 µM,,> 100 µM,> 100 µM,> 100 µM,> 100 µM,> 100 µM,,,,,,> 100 µM,,,,,,> 100 µM,
Cc1ccccc1NC(=O)CC1C(=O)Nc2ccccc2S1=O (stereo not given),> 100 µM,> 100 µM,,> 100 µM,> 100 µM,> 100 µM,> 100 µM,> 100 µM,,,,,> 100 µM,,,,,,> 100 µM,
COc1ccc2[nH]c(Cl)c(/C=C3/C(=O)Nc4ccccc43)c2c1,0.937 µM,,3.25 µM,20.7 µM,13.2 µM,,> 30.8 µM,0.722 µM,0.282 µM,,0.427 µM,,,0.724 µM,0.444 µM,0.498 µM,0.0902 µM,0.861 µM,2.75 µM,1.2 µM
NC(Cc1ccccc1)C(=O)OCN1C(=O)C2C3C=CC(C2C1=O)C1C2C(=O)N(COC(=O)C(N)Cc4ccccc4)C(=O)C2C31 (stereo not given),38.2 µM and 38 µM,> 100 µM,32.8 µM and 32.2 µM,> 100 µM and 70.7 µM,63.2 µM and > 100 µM,54.1 µM and 43.7 µM,,34.4 µM and 32.9 µM,,> 100 µM and 46 µM,,55.4 µM,> 100 µM,,,,,,39.1 µM and 34.6 µM,
Nc1n[n+]([O-])c2cc([N+](=O)[O-])ccc2[n+]1[O-],17.3 µM,36.6 µM,19 µM,13.2 µM,11.7 µM,20.5 µM,36.3 µM,20.6 µM,,,,,,,,,,,18.5 µM,
CN1CCN(CCCOc2cccc3nc(Nc4cc(Cl)cc(Cl)c4)ccc23)CC1,2.94 µM,3.51 µM,3.13 µM,3.59 µM,,3.48 µM,3.54 µM,3.75 µM,1.49 µM,1.78 µM,1.63 µM,1.64 µM,3.17 µM,1.68 µM,,1.94 µM,1.93 µM,1.72 µM,3.1 µM,1.79 µM
C=C1CCC2CC1C(C(=O)c1c[nH]c3ccccc13)=NC2(C)C (stereo not given),> 100 µM,> 100 µM,> 100 µM,> 100 µM,> 100 µM,> 100 µM,,> 100 µM,,,,,> 100 µM,,,,,,> 100 µM,
CCN(C(=O)N1CCN(c2cc3c(cc2F)c(=O)c(C(=O)O)cn3C2CC2)CC1)c1nc(-c2ccccc2)cs1,15.5 µM,,7.1 µM,> 100 µM,> 100 µM,> 100 µM,4.64 µM,55.6 µM,2.47 µM,,2.58 µM,3.28 µM,79.3 µM,3.12 µM,3.2 µM,3.33 µM,3.63 µM,3.25 µM,22.9 µM,2.02 µM
COc1ccc(C(c2ccccc2C(=O)O)c2ccc(OC)c3ccccc23)c2ccccc12,30.5 µM,39 µM,30.2 µM,25.5 µM,> 100 µM,34.8 µM,,34.2 µM,,,,,19.8 µM,,,,,,26.6 µM,
NC(N)=NN=c1c(=O)c2ccccc2c1=O,33.3 µM,,32.4 µM,35.3 µM,,22.5 µM,40.1 µM,11.7 µM,19.1 µM,,17.9 µM,14.2 µM,28 µM,17.2 µM,,10.1 µM,2.93 µM,4.36 µM,15.8 µM,20.7 µM
O=C1OC(CC(=O)c2ccc(F)cc2)C(Cl)=C1Cl (stereo not given),34.3 µM,,,72.7 µM,> 100 µM,40.2 µM,45 µM,60.4 µM,,,,,30.1 µM,,,,,,34.3 µM,
CC(Oc1cc2oc(=O)cc(-c3ccccc3)c2cc1Cl)C(=O)O (stereo not given),> 100 µM,> 100 µM,> 100 µM,> 100 µM,> 100 µM,> 100 µM,,> 100 µM,,,,,> 100 µM,,,,,,> 100 µM,
